Values belong to the molecule of their own block, whether it stands above or below them.
Experiments:
hV1a = hV1a (Homo sapiens, UniProt P37288); test: In vitro competition binding assay on hV1a receptor with scintillating proximity assay; design: expressed in transfected cells; host or cells: CHO cells (membranes); conditions: membranes from CHO cells expressing hV1a receptor; radiolabel [125I]-LVA; SPA; read-out: Binding Affinity Human V1a Ki
Experimental: b) In Vitro Competition Binding Assay on hV1a Receptor with Scintillating Proximity Assay
This assays allows to determine the affinity of the test compounds for the V1a receptor. Membranes from CHO cells expressing the hV1a receptor were resuspended in buffer containing 50 mM Tris-HCl, pH 7.4, 5 mM MgCl2 and 0.1% BSA (w/v). The membranes (5-10 μg) were mixed with 0.2 mg wheat-germ aglutinin (WGA) SPA bead (type A) and 0.03 nM of the radiolabel [^125I]-LVA (LVA being Linear Vasopressin Antagonist and is an analogue of AVP for competition binding experiments). Non-specific binding was determined in the presence of 1 μM AVP. The total assay volume was 100 μl. The plates (Corning 0 NBS plate) were incubated at room temperature for 2 hours and counted on a Mibrobeta plate counter. The tests compounds were used in concentrations of 30 μM, 10 μM, 1 μM, 300 nM, 100 nM, 10 nM, 1 nM, 100 pM, 10 pM. The competition binding data were analysed using the iterative, nonlinear, curve-fitting program, Graph pad “Prism”.
(§1) The binding affinities to the Via receptor of the sulfanilide derivatives claimed in the formula I were assessed using the above described in vitro biological assay. The values refer to the binding affinity (IC50; HM) of the example compounds according to formula I to the V1a receptor. From the values shown in Table 1 it can be derived that said test compounds according to formula I do show a significant binding to the Via receptor.

hOT receptor = target: T1, hOT receptor (Homo sapiens, UniProt P30559); test: In vitro competition binding assay on hOT receptor with scintillating proximity assay; conditions: membranes from HEK293EBNA cells expressing hOT receptor; radiolabel [125I]-OVTA; SPA; read-out: Binding Affinity Human OT-R Ki
T1 construct: expressed in transfected cells; host or cells: HEK293EBNA cells (membranes)
T1 sequence (P30559 1-389): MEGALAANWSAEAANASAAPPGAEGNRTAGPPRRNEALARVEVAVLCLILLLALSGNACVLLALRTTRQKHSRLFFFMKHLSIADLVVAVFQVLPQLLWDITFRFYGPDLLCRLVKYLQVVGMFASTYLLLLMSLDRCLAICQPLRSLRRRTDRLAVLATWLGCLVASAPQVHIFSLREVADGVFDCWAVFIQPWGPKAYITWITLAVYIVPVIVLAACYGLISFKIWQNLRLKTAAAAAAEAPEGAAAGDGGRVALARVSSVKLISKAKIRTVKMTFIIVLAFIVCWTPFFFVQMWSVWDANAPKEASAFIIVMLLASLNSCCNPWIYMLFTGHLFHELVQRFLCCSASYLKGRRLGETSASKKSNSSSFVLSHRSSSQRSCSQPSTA
Experimental: a) In Vitro Competition Binding Assay on hOT Receptor with Scintillating Proximity Assay (Pharmaceutical Manufacturing International, 1992, p. 49-53 by Cook, N. D. et al)
This assays allows to determine the affinity of the test compounds for the OT receptor. Membranes from HEK293EBNA cells expressing the hOT receptor were resuspended in buffer containing 50 mM Tris-HCl, pH 7.4, 5 mM MgCl2 and 0.1% BSA (w/v). The membranes (2-4 μg) were mixed with 0.1 mg wheat-germ aglutinin (WGA) SPA bead (type A) and 0.2 nM of the radiolabel [^125I]-OVTA (OVTA being […] and is an analogue of OT for competition binding experiments). Non-specific binding was determined in the presence of 1 μM Oxytocin. The total assay volume was 100 μl. The plates (Corning (D NBS plate) were incubated at room temperature for 30 min and counted on a Mibrobeta plate counter. The tests compounds were used in concentrations of 30 μM, 10 μM, 1 μM, 300 nM, 100 nM, 10 nM, 1 nM, 100 pM, 10 pM. The competition binding data were analysed using the iterative, nonlinear, curve-fitting program, “Prism”.
as §1, with “oxytocin” for “Via”, “μM)” for “HM)”, “Oxytocin” for “V1a”

[1] = tested on: oxytocin-induced uterine contractions in the rat; test: In vivo model for inhibition of uterine contractions; conditions: anaesthetised DES-treated non-pregnant female rat, route not given
Experimental: f) In Vivo Model for Inhibition of Uterine Contractions
The assay intends to show the biological effect of tested compounds in an in vivo model of preterm labor, premature birth.
Non-pregnant Charles River CD(SD) BR female rats (9-10 weeks old, 200-250 g) were treated at 18 and 24 hours before the experiment with 250 μg/kg, i.p. diethylstilbestrol (DES). For the assay, the animal was anaesthetised by urethane (1.75 g/kg, i.p.) and placed on an homeothennic operating table. The trachea was isolated and cannulated with a suitable polyethylene (PE) tubing. A midline incision at the hypogastrium level was made and one uterine horn exposed, its cephalic end cannulated with a PE240 tubing and, after filling the internal cavity with 0.2 ml of sterile physiological saline, connected to a “Gemini” amplifying/recording system via a P231D Gould Statham pressure transducer. For the i.v. route of administration of the test compounds, one jugular vein was isolated and cannulated with a PE60 tubing connected to a butterfly needle to allow the administration by a dispensing syringe. In the case of intraduodenal administration of the test compounds, the duodenum was isolated and similarly cannulated through a small incision in its wall. One carotid artery was also isolated and cannulated with PE60 catheter and connected to a suitable syringe for blood sample collection (see below). After a stabilization period, the same dose of oxytocin was repeatedly injected intravenously at 30-min intervals. […] Further injections of the same dose of oxytocin were then made for a suitable time after treatment to assess inhibitory effects of the compounds under study. The contractile response of the uterus to oxytocin was quantified by measuring the intra-uterine pressure and the number of contractions. The effect of the reference and test compounds were evaluated by comparing pre- and post-treatment pressure values. In addition, at 2, 30, 90 and 210 minutes after test compound administration, a 0.5-ml blood sample was withdrawn from the cannulated carotid artery of each experimental animal. Plasma was obtained by standard laboratory procedure and the resulting samples were stored at −20° C.
The activities of the sulfanilide derivatives claimed in the Formula I were assessed using the above described in vivo biological assay. The values refer to the capacity of the example compound according to Formula I to effectively antagonize oxytocin-induced uterine contractions in the rat.

hOT-R = target: T2, hOT-R (Homo sapiens, UniProt P30559); test: Inhibition of oxytocin mediated Ca2+-mobilization by FLIPR (HEK cells); format: cell-based; conditions: fluo-4, OT 40 nM
T2 construct: expressed in transfected cells; host or cells: HEK (Human Embryonic Kidney) cells
T2 sequence (P30559 1-389): T1 sequence (P30559 1-389)
Excerpt: c) Functional Assay No. 1: Inhibition of Oxytocitn Mediated Ca^2+-Mobilization by FLIPR (Fluorescent Imaging Plate Reader)
FLIPR is a machine for fluorescence imaging using a laser that is capable of illuminating a 96-well plate and a means of simultaneously reading each well thus enabling rapid measurements on a large number of samples.
This assay intends to show the inhibition of the OT/OT-R mediated calcium mobilisation—being necessary to cause uterine contractions—by using test compounds of formula (I).
Preparing the plates: FLIPR-plates were pre-coated with PLL (Poly-L-Lysine) 10 μg/ml+0.1% gelatine to attach the HEK (Human Embryonic Kidney) cells for 30 min up to 2 days at 37° C. The cells were plated out into 96-well plates (60000 cells/well).
Labelling with fluo-4: […] fluo-4 (fluorescent marker) were dissolved in 20 μl pluronic acid (20% in DMSO). The dissolved fluo-4 was then diluted in 10 ml DMEM (Dubecco's Minimal Essential Medium-F12 medium without FCS (Fetal Calf Serum). The medium was removed from the plates, followed by one wash with DNEM-F12 medium. Now, 100 μl of the DMEM-F12 medium containing fluo-4 were added and the cells incubated for 1.5-2 h (HEK-cells). The cells now contain the fluorescent marker.
Buffer: 145 mM NaCl, 5 mM KCl, 1 mM MgCl2, 10 mM Hepes, 10 mM Glucose, EGTA (Ethylene-bis oxyethylene nitrilo tetraacetic acid). Adjust to pH 7.4.
Performance of the assay: A minimum of 80 μl/well of antagonists (5×) in the above buffer (1×) were prepared (96-well plates). The antagonists were added to the well-plates at different concentrations (30 μM, 10 μM, 1 μM, 300 nM, 100 nM, 10 nM, 1 nM, 100 pM, 10 pM).
OT is added at a concentration of 40 nM.
The fluorescent marker being sensitive to the amount of Ca^2+ mobilized within the cell may be quantified by the FLIPR machine.
The activities of the sulfanilide derivatives according to formula I were assessed using the above described in vitro biological assay. The values refer to the capacity of the example compounds according to formula I to effectively antagonize oxytocin-induced intracellular Ca^2+-mobilization mediated by the oxytocin receptor.

hV1a, sequence (P37288 whole entry): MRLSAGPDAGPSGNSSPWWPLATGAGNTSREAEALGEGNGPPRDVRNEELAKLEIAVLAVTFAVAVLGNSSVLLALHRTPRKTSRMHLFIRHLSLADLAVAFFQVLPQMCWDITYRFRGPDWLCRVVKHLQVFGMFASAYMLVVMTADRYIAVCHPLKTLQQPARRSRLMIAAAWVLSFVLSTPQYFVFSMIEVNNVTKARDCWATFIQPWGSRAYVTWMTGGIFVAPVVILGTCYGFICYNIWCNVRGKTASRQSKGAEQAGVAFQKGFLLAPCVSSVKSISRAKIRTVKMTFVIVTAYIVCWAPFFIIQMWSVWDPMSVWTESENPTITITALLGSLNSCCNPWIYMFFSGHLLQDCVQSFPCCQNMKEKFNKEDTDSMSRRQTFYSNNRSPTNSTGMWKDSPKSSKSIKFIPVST

- Ki (hV1a): 135 nM
Compound: COc1ccc(N(CC(=O)Nc2ccc(C)cc2C)S(=O)(=O)c2ccc(OC)c(OC)c2)cc1 [2-[(3,4-Dimethoxy-benzenesulfonyl)-(4-methoxy-phenyl)amino]-N-(2,4-dimethyl-phenyl)-acetamide]

- Ki (hV1a): 430 nM
Compound: COc1ccc(N(CC(=O)NCCSc2ccccn2)S(=O)(=O)c2ccc(C)cc2)cc1 [2-[(4-Methoxy-phenyl)-(toluene-4-sulfonyl)-amino]-N-[2-(pyridin-2-ylsulfanyl)-ethyl]-acetamide]

- Ki (hV1a): 45 nM
Compound: COc1ccc(N(CC(=O)Nc2ccc(C)cc2C)S(=O)(=O)c2ccccc2)cc1 [2-[Benzenesulfonyl-(4-methoxy-phenyl)-amino]-N-(2,4-dimethyl-phenyl)-acetamide]

- Ki (hOT receptor): 0.8 nM
- IC50 (hOT-R): 7 nM
Compound: O=C(CN(c1ccc(Cl)cc1)S(=O)(=O)c1ccc(OCCN2CCOCC2)cc1)NN=C1C(=O)Nc2ccccc21 [Example 55, N-(4-chlorophenyl)-4-[2-(4-morpholinyl)ethoxy]-N-{2-oxo-2-[2-(2-oxo-1,2-dihydro-3H-indol-3-ylidene)hydrazino]ethyl}benzenesulfonamide]
- % Reduction of Uterine Contraction ([1]; dose 0.3 mg/kg): 4.3 ± 1.7%
- % Reduction of Uterine Contraction ([1]; dose 1 mg/kg): 18.2 ± 3.7%
- % Reduction of Uterine Contraction ([1]; dose 3 mg/kg): 39.8 ± 5.1%
- % Reduction of Uterine Contraction ([1]; dose 10 mg/kg): 41.7 ± 12.5%
- % Reduction of Uterine Contraction ([1]; dose 30 mg/kg): 71.3 ± 6.4%

- Ki (hOT receptor): 0.6 nM
- IC50 (hOT-R): 13.6 nM
Compound: CN(C)CCCOc1ccc(S(=O)(=O)N(CC(=O)N/N=C2\C(=O)Nc3ccccc32)c2ccc(Cl)cc2)cc1 [Example 67, N-(4-chlorophenyl)-4-[3-(dimethylamino)propoxy]-N-{2-oxo-2-[(2Z)-2-(2-oxo-1,2-dihydro-3H-indol-3-ylidene)hydrazino]ethyl}benzenesulfonamide]
- % Reduction of Uterine Contraction ([1]; dose 0.3 mg/kg): 9.3 ± 2.5%
- % Reduction of Uterine Contraction ([1]; dose 1 mg/kg): 20.8 ± 2.2%
- % Reduction of Uterine Contraction ([1]; dose 3 mg/kg): 34.4 ± 3.9%
- % Reduction of Uterine Contraction ([1]; dose 10 mg/kg): 57.1 ± 4.8%
- % Reduction of Uterine Contraction ([1]; dose 30 mg/kg): 67.4 ± 7.1%

- Ki (hV1a): 370 nM
Compound: Cc1ccc(N(CC(=O)NCC(O)c2ccccc2)S(=O)(=O)c2ccc(C)cc2)cc1 (stereo not shown) [N-(2-Hydroxy-2-phenyl-ethyl)-2-[(toluene-4-sulfonyl)-p-tolyl-amino]-acetamide]

- Ki (hV1a): 503 nM
Compound: O=C(CN(c1cccc(Br)c1)S(=O)(=O)c1ccccc1)N/N=C/c1ccccc1O [N-(3-Bromo-phenyl)-N-(2-hydroxy-benzylidene-hydrazinocarbonylmethyl)-benzenesulfonamide]

- Ki (hV1a): 58 nM
Compound: O=C(CN(c1ccc(Br)cc1)S(=O)(=O)c1ccccc1)N1CCc2ccccc2C1 [N-(4-Bromo-phenyl)-N-[2-(3,4-dihydro-1H-isoquinolin-2-yl)-2-oxo-ethyl]-benzenesulfonamide]

- Ki (hV1a): 750 nM
Compound: O=C(CN(c1ccc(Cl)cc1)S(=O)(=O)c1ccccc1)N/N=C/c1ccccc1O [N-(4-Chloro-phenyl)-N-(2-hydroxy-benzylidene-hydrazinocarbonylmethyl)-benzenesulfonamide]

- Ki (hOT receptor): 246 nM
- Ki (hV1a): 375 nM
Compound: CCOc1ccc(S(=O)(=O)N(CC(=O)N2CCc3ccccc3C2)c2ccc(C)cc2)cc1 [N-[2-(3,4-Dihydro-1H-isoquinolin-2-yl)-2-oxo-ethyl]-4-ethoxy-N-p-tolyl-benzenesulfonamide]

- Ki (hV1a): 391 nM
Compound: C/C(=N\NC(=O)CN(c1ccc(Br)cc1)S(=O)(=O)c1ccccc1)c1ccccc1O [drawing 134, N-(4-Bromo-phenyl)-N-[1-(2-hydroxy-phenyl)-ethylidenehydrazinocarbonylmethyl]-benzenesulfonamide]

- Ki (hV1a): 800 nM
Compound: C/C(=N\NC(=O)CN(c1ccc(Br)cc1)S(=O)(=O)c1ccccc1)c1ccccc1O [drawing 139, N-(4-Bromo-phenyl)-N-[1-(2-hydroxy-phenyl)-ethylidene-hydrazinocarbonylmethyl]-benzenesulfonamide]

— patent US7312358B2, “Pharmaceutically active sulfanilide derivatives” (Laboratoires Serono SA, priority 2000, dated 2007)
